Data: patent publication US6645969B1, “Aryl and heteroaryl quinazoline compounds which inhibit CSF-1R receptor tyrosine kinase” (Aventis Pharmaceuticals Inc., priority 1991, dated 2003)

What was measured:
[1] = target: T1, CSF-1R tyrosine kinase (Homo sapiens, UniProt P07333); experiment: CSF-1R cell-free autophosphorylation assay; format: biochemical
T1 construct: host or cells: unnamed cell lysate ('stimulated lysate')
Description: CSF-1R Cell-free Autophosphorylation Assay
For a regular 28 tube assay (14 samples per 15 well gel):
In 2 ml eppendorf tube: 140 mg protein A sepharose (5 mg/sample)
Swell in 20 mM Hepes pH 7.5 and wash 2× in Hepes
In 15 ml tube: 2.8 ml lysate lysis buffer: 20 mM Hepes
Protease inhibitors added fresh:
PMSF: 8 mg/ml=[…] in 100% EtOH, store frozen, add 100 λ/10 ml lysis buffer Aprotinin: 10 mg/ml=250× in H2O, store frozen, add 40 λ/10 ml lysis buffer Leupeptin: 1 mg/ml=250× in H2O, store frozen, add 40 λ/10 ml lysis buffer Add washed beads to stimulated lysate and incubate 90 min 4° C. on rotator or shaking prepare 28 compound tubes: make 40 mM solutions of compounds in 100% DMSO make serial dilutions in 50 mM Tris pH 7.5+10 mM MnCl2 aliquot 10λ compound solution into each 1 ml eppendorf reaction tube waiting on ice, control blanks get 10λ buffer Wash beads 1×HNTG, 2×10 mM Tris pH 7.5
2.7λ cold ATP (stock of 10 mM in 50 mM
Vortex, incubate 10 min on ice
Add 45λ 2×SDS-sample buffer, heat 95° C. 6 min
7.5% SDS-PAGE, fix, dry, expose (usually 4 hrs)

[2] = target: T2, p56^Ick tyrosine kinase (Homo sapiens, UniProt P06239); experiment: Ick kinase cell-free assay (immunoprecipitated from Jurkat lysate); format: biochemical
T2 construct: samples containing Ick immuno-precipitated from 2×10^6 cells; endogenous in cells; host or cells: Jurkat (human T-cell leukemia, ATCC clone E6-1)
T2 sequence (P06239 whole entry): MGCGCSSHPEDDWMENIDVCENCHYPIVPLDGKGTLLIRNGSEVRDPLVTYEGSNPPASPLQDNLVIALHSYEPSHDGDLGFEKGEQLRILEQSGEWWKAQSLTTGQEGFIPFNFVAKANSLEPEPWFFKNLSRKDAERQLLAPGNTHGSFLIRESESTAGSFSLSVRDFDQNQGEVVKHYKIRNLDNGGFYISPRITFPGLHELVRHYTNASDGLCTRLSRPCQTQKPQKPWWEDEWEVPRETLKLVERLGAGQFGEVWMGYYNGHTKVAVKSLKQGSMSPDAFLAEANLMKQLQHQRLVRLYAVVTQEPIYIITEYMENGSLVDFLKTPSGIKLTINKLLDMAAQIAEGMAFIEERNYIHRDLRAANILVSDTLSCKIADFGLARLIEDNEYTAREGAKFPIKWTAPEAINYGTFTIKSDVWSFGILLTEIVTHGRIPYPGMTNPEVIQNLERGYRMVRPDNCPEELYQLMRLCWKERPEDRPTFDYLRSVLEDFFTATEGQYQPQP
Description: Ick Kinase: Immunoprecipitated from Jurkat Lysate
B. Cells are grown to 1-1.5×10^6 cells/ml media, pelleted by centrifugation, and lysed in lysis buffer at 10^8 cells/ml buffer (50 mM tris (pH 8), 150 mM NaCl, 5 mM EDTA, 10% glycerol, and 1% NP-40, to which fresh protease and phosphatase inhibitors are added as described above for A431 lysate). Lysates stored at −70° C.
C. Immunoprecipitation: 3-4 mg Protein-A sepharose/sample washed 2×20 mM Hepes (pH 7.5). 1 ul α-Ick antibody (prepared as polyclonals in rabbits using a peptide antigen corresponding to the N-terminal region of human Ick) per sample added to the Protein-A and shaken 20 min at room temperature. After washing 3× HNTG, lysate from 2×10^6 cells is added to each sample, rotated 2 hr at 4° C., then washed 3× HNTG (2nd wash containing 0.5 N NaCl). If all samples contain identical concentrations of the enzyme, then the immuno-precipitation can be done in bulk and alloquoted to appropriate numbers of tubes prior to assay set-up.
Samples are analyzed by 5-15% SDS-PAGE and autoradiography as described for EGFR kinase assays.

T1 sequence (P07333 20-972): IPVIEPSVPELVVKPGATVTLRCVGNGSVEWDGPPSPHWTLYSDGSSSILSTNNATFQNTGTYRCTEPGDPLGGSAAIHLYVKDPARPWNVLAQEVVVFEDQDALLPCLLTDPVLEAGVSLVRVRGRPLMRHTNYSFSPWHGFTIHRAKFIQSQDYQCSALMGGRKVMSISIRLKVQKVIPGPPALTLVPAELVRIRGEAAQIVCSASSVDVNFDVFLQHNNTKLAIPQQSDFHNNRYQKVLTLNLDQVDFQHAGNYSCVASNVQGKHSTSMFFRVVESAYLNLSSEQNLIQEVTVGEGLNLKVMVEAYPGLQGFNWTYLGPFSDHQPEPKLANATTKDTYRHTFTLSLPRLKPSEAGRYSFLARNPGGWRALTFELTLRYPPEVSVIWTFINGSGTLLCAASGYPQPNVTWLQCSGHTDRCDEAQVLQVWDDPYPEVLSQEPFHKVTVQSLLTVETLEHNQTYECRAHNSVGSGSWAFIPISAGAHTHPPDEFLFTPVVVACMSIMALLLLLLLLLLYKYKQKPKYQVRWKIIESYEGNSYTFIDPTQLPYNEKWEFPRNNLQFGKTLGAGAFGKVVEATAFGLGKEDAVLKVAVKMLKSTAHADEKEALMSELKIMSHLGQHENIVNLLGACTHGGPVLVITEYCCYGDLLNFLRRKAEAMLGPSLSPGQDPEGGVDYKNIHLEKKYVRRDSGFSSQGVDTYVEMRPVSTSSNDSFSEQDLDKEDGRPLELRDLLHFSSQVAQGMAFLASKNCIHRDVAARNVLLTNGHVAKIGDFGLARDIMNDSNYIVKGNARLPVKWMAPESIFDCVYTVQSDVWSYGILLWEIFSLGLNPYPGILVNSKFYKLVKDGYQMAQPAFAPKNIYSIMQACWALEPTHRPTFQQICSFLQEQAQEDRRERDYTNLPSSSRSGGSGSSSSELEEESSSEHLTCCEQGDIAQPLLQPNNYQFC

| SMILES | IC50 [1] | IC50 [2] | melting point |
| --- | --- | --- | --- |
| COc1cc2ncnc(-c3ccsc3)c2cc1OC | 6 µM | > 10 µM |  |
| COc1cc2ncnc(N(C)c3ccccc3)c2cc1OC | 0.5 µM | > 50 µM |  |
| CCN(c1ccccc1)c1ncnc2cc(OC)c(OC)cc12 | 4 µM | > 50 µM |  |
| COc1cc(Nc2ncnc3cc(OC)c(OC)cc23)cc(OC)c1 | > 100 µM |  |  |
| COc1cc2ncnc(Nc3cc(OC)c(OC)c(OC)c3)c2cc1OC | > 100 µM |  |  |
| COc1cc2ncnc(NC3CCCCC3)c2cc1OC | > 50 µM |  |  |
| COc1cc2ncnc(Nc3ccc4ccccc4c3)c2cc1OC | > 50 µM |  |  |
| COc1cc2ncnc(Nc3cccc4ccccc34)c2cc1OC | > 50 µM | 2.5 µM |  |
| COc1ccc(Nc2ncnc3cc(OC)c(OC)cc23)cc1OC | > 20 µM |  |  |
| COc1cc2ncnc(NCc3ccccc3)c2cc1OC | ≥ 20 µM | 20 µM |  |
| COc1cc2ncnc(Sc3cccc(Cl)c3)c2cc1OC | 3 µM | 2.5 µM |  |
| COc1cccc(Sc2ncnc3cc(OC)c(OC)cc23)c1 | 1 µM | 5 µM |  |
| COc1cc2ncnc(Oc3cc(OC)c(OC)c(OC)c3)c2cc1OC | > 50 µM | 5 µM |  |
| COc1cc2ncnc(-c3cccc(-c4ccccc4)c3)c2cc1OC | 15 µM | 2.9 µM |  |
| COc1cc2ncnc(Oc3cccc(Cl)c3)c2cc1OC [Example 1, 4-(3-Chlorophenoxy)-6,7-dimethoxyquinazoline] |  |  | 152 to 153 °C |
| COc1cc2ncnc(Oc3cccc(Cl)c3)c2cc1OC [drawing 19] | > 50 µM | 1 µM |  |
